Measured values: patent US5432042A, “Method for obtaining a printing plate according to the silver salt diffusion transfer process” (Agfa-Gevaert, N.V., priority 1993, dated 1995)

Assay: pKa of the mercapto group by titration with hydrochloric acid
Assay type: physicochemical
Conditions: 0.002 mole/liter in water at pH 11, titrated with hydrochloric acid (0.1 mole/liter)
Procedure: The pKa of the hydrophobizing compounds in connection with the present invention were determined according to the method described in "Ionization Constants of Acids and Bases--A Laboratory Manual" written by Adrien Albert and E. P. Serjeant and Edited by John Wiley & Sons (New York) page 110-112 (1962).
In these particular cases, the hydrophobizing compounds were dissolved in water at pH 11. The concentration of the hydrophobizing compounds was 0.002 mole/liter and the mixture was then titrated with a solution of hydrochloric acid (0.1 mole/liter).

`CCCCCCCc1nnc(S)o1` [2-mercapto-5-n.heptyl-oxa-3,4-diazole, reference compound] showed a pKa of 4.8.
With `CCCCCCNC(=O)Cn1nnnc1S` [compound 1] the pKa was 3.3.
`CCCCCCn1nnnc1S` [compound 3] gave a pKa of 3.4.
